Source: the supplement of paper PMC10307832

Assays:
Assay in all cases: relative viability (nuclei count vs DMSO), 5 days (fraction); higher = more cells survive
Vorinostat + Decitabine = compound: O=C(CCCCCCC(=O)Nc1ccccc1)NO [Vorinostat] + Nc1ncn([C@H]2C[C@H](O)[C@@H](CO)O2)c(=O)n1 [Decitabine] (partner 2 µM)
How it was run: (§1)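 After 5 days of treatment, lung cancer cells in 1536-well plates were fixed and stained in a single step (final 0.05% Triton X-100, 1% formaldehyde, 1 ug/ml Hoechst) and their nuclei counted on 4× images. Treatment had been applied by pin tool the day after seeding as one drug alone or as a fixed anchor-drug dose with five library-drug doses (not always all listed) in √10 steps. Relative viability is the nuclei count of treated wells divided by that of vehicle wells, and values are medians of duplicate plates.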

Vorinostat + Lapatinib = compound: O=C(CCCCCCC(=O)Nc1ccccc1)NO [Vorinostat] + CS(=O)(=O)CCNCc1ccc(-c2ccc3ncnc(Nc4ccc(OCc5cccc(F)c5)c(Cl)c4)c3c2)o1 [Lapatinib] (partner 2 µM)
How it was run: as §1

Vorinostat + Alpelisib = compound: O=C(CCCCCCC(=O)Nc1ccccc1)NO [Vorinostat] + Cc1nc(NC(=O)N2CCC[C@H]2C(N)=O)sc1-c1ccnc(C(C)(C)C(F)(F)F)c1 [Alpelisib] (partner 2 µM)
How it was run: as §1

Vorinostat + Olaparib = compound: O=C(CCCCCCC(=O)Nc1ccccc1)NO [Vorinostat] + O=C(c1cc(Cc2n[nH]c(=O)c3ccccc23)ccc1F)N1CCN(C(=O)C2CC2)CC1 [Olaparib] (partner 8 µM)
How it was run: as §1

Vorinostat + Dasatinib = compound: O=C(CCCCCCC(=O)Nc1ccccc1)NO [Vorinostat] + Cc1nc(Nc2ncc(C(=O)Nc3c(C)cccc3Cl)s2)cc(N2CCN(CCO)CC2)n1 [Dasatinib] (partner 0.075 µM)
How it was run: as §1

EMC-BAC-2
relative viability (Vorinostat + Decitabine; first compound 0.253 µM): 0.958
relative viability (Vorinostat + Decitabine; first compound 0.8 µM): 0.716
relative viability (Vorinostat + Decitabine; first compound 2.53 µM): 0.373
relative viability (Vorinostat + Decitabine; first compound 8 µM): 0.168
relative viability (Vorinostat + Lapatinib; first compound 0.253 µM): 1.04
relative viability (Vorinostat + Lapatinib; first compound 0.8 µM): 0.871
relative viability (Vorinostat + Lapatinib; first compound 2.53 µM): 0.405
relative viability (Vorinostat + Lapatinib; first compound 8 µM): 0.149
relative viability (Vorinostat + Alpelisib; first compound 0.253 µM): 0.88
relative viability (Vorinostat + Alpelisib; first compound 0.8 µM): 0.745
relative viability (Vorinostat + Alpelisib; first compound 2.53 µM): 0.409
relative viability (Vorinostat + Alpelisib; first compound 8 µM): 0.113
relative viability (Vorinostat + Olaparib; first compound 0.253 µM): 0.448
relative viability (Vorinostat + Olaparib; first compound 0.8 µM): 0.382
relative viability (Vorinostat + Olaparib; first compound 2.53 µM): 0.216
relative viability (Vorinostat + Olaparib; first compound 8 µM): 0.139
relative viability (Vorinostat + Dasatinib; first compound 0.253 µM): 0.311
relative viability (Vorinostat + Dasatinib; first compound 0.8 µM): 0.204
relative viability (Vorinostat + Dasatinib; first compound 2.53 µM): 0.169
relative viability (Vorinostat + Dasatinib; first compound 8 µM): 0.108

EPLC-272H
relative viability (Vorinostat + Decitabine; first compound 0.253 µM): 0.309
relative viability (Vorinostat + Decitabine; first compound 0.8 µM): 0.338
relative viability (Vorinostat + Decitabine; first compound 2.53 µM): 0.189
relative viability (Vorinostat + Decitabine; first compound 8 µM): 0.152
relative viability (Vorinostat + Lapatinib; first compound 0.253 µM): 0.788
relative viability (Vorinostat + Lapatinib; first compound 0.8 µM): 0.761
relative viability (Vorinostat + Lapatinib; first compound 2.53 µM): 0.278
relative viability (Vorinostat + Lapatinib; first compound 8 µM): 0.14
relative viability (Vorinostat + Alpelisib; first compound 0.253 µM): 0.928
relative viability (Vorinostat + Alpelisib; first compound 0.8 µM): 0.893
relative viability (Vorinostat + Alpelisib; first compound 2.53 µM): 0.396
relative viability (Vorinostat + Alpelisib; first compound 8 µM): 0.175
relative viability (Vorinostat + Olaparib; first compound 0.253 µM): 0.827
relative viability (Vorinostat + Olaparib; first compound 0.8 µM): 0.565
relative viability (Vorinostat + Olaparib; first compound 2.53 µM): 0.2
relative viability (Vorinostat + Olaparib; first compound 8 µM): 0.13
relative viability (Vorinostat + Dasatinib; first compound 0.253 µM): 0.428
relative viability (Vorinostat + Dasatinib; first compound 0.8 µM): 0.494
relative viability (Vorinostat + Dasatinib; first compound 2.53 µM): 0.151
relative viability (Vorinostat + Dasatinib; first compound 8 µM): 0.0935

H3255
relative viability (Vorinostat + Decitabine; first compound 0.253 µM): 0.839
relative viability (Vorinostat + Decitabine; first compound 0.8 µM): 0.607
relative viability (Vorinostat + Decitabine; first compound 2.53 µM): 0.427
relative viability (Vorinostat + Decitabine; first compound 8 µM): 0.173
relative viability (Vorinostat + Lapatinib; first compound 0.253 µM): 0.24
relative viability (Vorinostat + Lapatinib; first compound 0.8 µM): 0.17
relative viability (Vorinostat + Lapatinib; first compound 2.53 µM): 0.141
relative viability (Vorinostat + Lapatinib; first compound 8 µM): 0.101
relative viability (Vorinostat + Alpelisib; first compound 0.253 µM): 0.874
relative viability (Vorinostat + Alpelisib; first compound 0.8 µM): 0.714
relative viability (Vorinostat + Alpelisib; first compound 2.53 µM): 0.414
relative viability (Vorinostat + Alpelisib; first compound 8 µM): 0.209
relative viability (Vorinostat + Olaparib; first compound 0.253 µM): 0.588
relative viability (Vorinostat + Olaparib; first compound 0.8 µM): 0.52
relative viability (Vorinostat + Olaparib; first compound 2.53 µM): 0.326
relative viability (Vorinostat + Olaparib; first compound 8 µM): 0.222
relative viability (Vorinostat + Dasatinib; first compound 0.253 µM): 0.396
relative viability (Vorinostat + Dasatinib; first compound 0.8 µM): 0.342
relative viability (Vorinostat + Dasatinib; first compound 2.53 µM): 0.309
relative viability (Vorinostat + Dasatinib; first compound 8 µM): 0.301

HARA
relative viability (Vorinostat + Decitabine; first compound 0.253 µM): 0.468
relative viability (Vorinostat + Decitabine; first compound 0.8 µM): 0.367
relative viability (Vorinostat + Decitabine; first compound 2.53 µM): 0.194
relative viability (Vorinostat + Decitabine; first compound 8 µM): 0.0814
relative viability (Vorinostat + Lapatinib; first compound 0.253 µM): 0.849
relative viability (Vorinostat + Lapatinib; first compound 0.8 µM): 0.682
relative viability (Vorinostat + Lapatinib; first compound 2.53 µM): 0.237
relative viability (Vorinostat + Lapatinib; first compound 8 µM): 0.112
relative viability (Vorinostat + Alpelisib; first compound 0.253 µM): 0.949
relative viability (Vorinostat + Alpelisib; first compound 0.8 µM): 0.761
relative viability (Vorinostat + Alpelisib; first compound 2.53 µM): 0.174
relative viability (Vorinostat + Alpelisib; first compound 8 µM): 0.0907
relative viability (Vorinostat + Olaparib; first compound 0.253 µM): 0.966
relative viability (Vorinostat + Olaparib; first compound 0.8 µM): 0.454
relative viability (Vorinostat + Olaparib; first compound 2.53 µM): 0.0979
relative viability (Vorinostat + Olaparib; first compound 8 µM): 0.0743
relative viability (Vorinostat + Dasatinib; first compound 0.253 µM): 0.311
relative viability (Vorinostat + Dasatinib; first compound 0.8 µM): 0.238
relative viability (Vorinostat + Dasatinib; first compound 2.53 µM): 0.18
relative viability (Vorinostat + Dasatinib; first compound 8 µM): 0.0565

HCC-15
relative viability (Vorinostat + Decitabine; first compound 0.253 µM): 0.69
relative viability (Vorinostat + Decitabine; first compound 0.8 µM): 0.521
relative viability (Vorinostat + Decitabine; first compound 2.53 µM): 0.2
relative viability (Vorinostat + Decitabine; first compound 8 µM): 0.0924
relative viability (Vorinostat + Lapatinib; first compound 0.253 µM): 0.941
relative viability (Vorinostat + Lapatinib; first compound 0.8 µM): 0.852
relative viability (Vorinostat + Lapatinib; first compound 2.53 µM): 0.569
relative viability (Vorinostat + Lapatinib; first compound 8 µM): 0.129
relative viability (Vorinostat + Alpelisib; first compound 0.253 µM): 0.93
relative viability (Vorinostat + Alpelisib; first compound 0.8 µM): 0.864
relative viability (Vorinostat + Alpelisib; first compound 2.53 µM): 0.468
relative viability (Vorinostat + Alpelisib; first compound 8 µM): 0.0971
relative viability (Vorinostat + Olaparib; first compound 0.253 µM): 0.672
relative viability (Vorinostat + Olaparib; first compound 0.8 µM): 0.631
relative viability (Vorinostat + Olaparib; first compound 2.53 µM): 0.35
relative viability (Vorinostat + Olaparib; first compound 8 µM): 0.106
relative viability (Vorinostat + Dasatinib; first compound 0.253 µM): 0.748
relative viability (Vorinostat + Dasatinib; first compound 0.8 µM): 0.589
relative viability (Vorinostat + Dasatinib; first compound 2.53 µM): 0.225
relative viability (Vorinostat + Dasatinib; first compound 8 µM): 0.06

HCC-44
relative viability (Vorinostat + Decitabine; first compound 0.253 µM): 1.03
relative viability (Vorinostat + Decitabine; first compound 0.8 µM): 0.896
relative viability (Vorinostat + Decitabine; first compound 2.53 µM): 0.737
relative viability (Vorinostat + Decitabine; first compound 8 µM): 0.413
relative viability (Vorinostat + Lapatinib; first compound 0.253 µM): 1.03
relative viability (Vorinostat + Lapatinib; first compound 0.8 µM): 0.985
relative viability (Vorinostat + Lapatinib; first compound 2.53 µM): 0.508
relative viability (Vorinostat + Lapatinib; first compound 8 µM): 0.111
relative viability (Vorinostat + Alpelisib; first compound 0.253 µM): 0.896
relative viability (Vorinostat + Alpelisib; first compound 0.8 µM): 0.587
relative viability (Vorinostat + Alpelisib; first compound 2.53 µM): 0.186
relative viability (Vorinostat + Alpelisib; first compound 8 µM): 0.0876
relative viability (Vorinostat + Olaparib; first compound 0.253 µM): 1.04
relative viability (Vorinostat + Olaparib; first compound 0.8 µM): 1.05
relative viability (Vorinostat + Olaparib; first compound 2.53 µM): 0.658
relative viability (Vorinostat + Olaparib; first compound 8 µM): 0.317

HCC-78
relative viability (Vorinostat + Decitabine; first compound 0.253 µM): 0.672
relative viability (Vorinostat + Decitabine; first compound 0.8 µM): 0.634
relative viability (Vorinostat + Decitabine; first compound 2.53 µM): 0.355
relative viability (Vorinostat + Decitabine; first compound 8 µM): 0.236
relative viability (Vorinostat + Lapatinib; first compound 0.253 µM): 0.705
relative viability (Vorinostat + Lapatinib; first compound 0.8 µM): 0.455
relative viability (Vorinostat + Lapatinib; first compound 2.53 µM): 0.249
relative viability (Vorinostat + Lapatinib; first compound 8 µM): 0.155
relative viability (Vorinostat + Alpelisib; first compound 0.253 µM): 0.346
relative viability (Vorinostat + Alpelisib; first compound 0.8 µM): 0.208
relative viability (Vorinostat + Alpelisib; first compound 2.53 µM): 0.114
relative viability (Vorinostat + Alpelisib; first compound 8 µM): 0.099
relative viability (Vorinostat + Olaparib; first compound 0.253 µM): 0.778
relative viability (Vorinostat + Olaparib; first compound 0.8 µM): 0.615
relative viability (Vorinostat + Olaparib; first compound 2.53 µM): 0.221
relative viability (Vorinostat + Olaparib; first compound 8 µM): 0.201
relative viability (Vorinostat + Dasatinib; first compound 0.253 µM): 0.371
relative viability (Vorinostat + Dasatinib; first compound 0.8 µM): 0.398
relative viability (Vorinostat + Dasatinib; first compound 2.53 µM): 0.211
relative viability (Vorinostat + Dasatinib; first compound 8 µM): 0.2

HCC-366
relative viability (Vorinostat + Decitabine; first compound 0.253 µM): 0.383
relative viability (Vorinostat + Decitabine; first compound 0.8 µM): 0.244
relative viability (Vorinostat + Decitabine; first compound 2.53 µM): 0.0518
relative viability (Vorinostat + Decitabine; first compound 8 µM): 0.0306
relative viability (Vorinostat + Lapatinib; first compound 0.253 µM): 1.16
relative viability (Vorinostat + Lapatinib; first compound 0.8 µM): 0.741
relative viability (Vorinostat + Lapatinib; first compound 2.53 µM): 0.0772
relative viability (Vorinostat + Lapatinib; first compound 8 µM): 0.0322
relative viability (Vorinostat + Alpelisib; first compound 0.253 µM): 0.456
relative viability (Vorinostat + Alpelisib; first compound 0.8 µM): 0.36
relative viability (Vorinostat + Alpelisib; first compound 2.53 µM): 0.0363
relative viability (Vorinostat + Alpelisib; first compound 8 µM): 0.0122
relative viability (Vorinostat + Olaparib; first compound 0.253 µM): 0.249
relative viability (Vorinostat + Olaparib; first compound 0.8 µM): 0.116
relative viability (Vorinostat + Olaparib; first compound 2.53 µM): 0.0308
relative viability (Vorinostat + Olaparib; first compound 8 µM): 0.0193
relative viability (Vorinostat + Dasatinib; first compound 0.253 µM): 0.805
relative viability (Vorinostat + Dasatinib; first compound 0.8 µM): 0.426
relative viability (Vorinostat + Dasatinib; first compound 2.53 µM): 0.102
relative viability (Vorinostat + Dasatinib; first compound 8 µM): 0.0346
